Test results taken from patent US20090215710A1, “CARBOHYDRATE BASED TOLL-LIKE RECEPTOR (TLR) ANTAGONISTS” (RELIANCE LIFE SCIENCES PVT. LTD., priority 2007, published 2009).

Tests used:
[1] = test system: TNF; experiment: Pre-screen for TNF inhibition activity of synthesized molecules (Table 1); format: cell-based
[2] = test system: IL-6 mRNA; experiment: IL-6 mRNA expression in LPS stimulated THP-1 cells (real-time PCR); format: cell-based, human; settings: THP-1, LPS 250 ng/ml 1 hr
Description: To determine whether the suppressive effect of RSCL-0409 on the cytokine production occurs at mRNA expression level, quantitative real-time PCR was used to examine TNF-α and IL-6 mRNA expression in THP-1 cells stimulated with LPS. THP-1 cells (3×10^6 cells/well) were stimulated with 250 ng/ml LPS in the presence or absence of RSCL-0409 at indicated concentrations for the 1 hr. Total RNA was isolated from these cells and cDNA was synthesized. LPS treated cells acted as positive control. All quantitative real-time PCR (TaqMan™) primers and probes were obtained from Applied Biosystems (ABI), Weiterstadt, Germany. For detection of TNF-α, pre-developed assay reagents (Universal master mix as obtained from Applied Biosystems included all reagents including Taq-polymerase apart from specific primers and probes) were used. The PCR was performed utilizing 1 μl cDNA per reaction in triplicates of 25 μl volume on an ABI 7500 Realtime PCR machine using a 2-step PCR protocol.
Quantization of mRNA was performed using the comparative threshold cycle method and analysed using standard software and expressed in fold change. The fold change of TNF-α (FIG. 5a) and IL-6 (FIG. 5b) mRNA in treated cells over control was obtained after correction for the amount of β-actin. […] The expression levels of both TNF and IL-6 decreased following 1 hr pretreatment with RSCL-0409 in the presence of LPS. […]

[3] = test system: COX-2 pathway; experiment: Arachadonic acid induced PGE2 release in A549 cells (EIA); format: cell-based, human
Description: COX-2 is the key enzyme regulating the production of prostaglandins, which act as central mediators of inflammation. […] It is well documented COX-2 pathway inhibitors were regarded as promising nonsteroidal anti-inflammatory drugs (NSAIDs). So we decided to test the ability of RSCL-0409 to block the COX-2 pathway to substantiate our earlier mRNA observation. For that purpose, we chose A549 cells, a human lung cancer cell line where COX-2 is activated by AA in serum-free stimulation established by Yao et al for 12 hr. (Yao J C, Duan W G, Yun Y, Liu de Q, Yan M, Jiang Z Z, Zhang L Y. Screening method for nonsteroidal antiinflammatory drugs based on the cyclooxygenase 2 pathway activated by serum-free stimulation in A549 cells. Yakugaku Zasshi. 2007; 127: 527-32.) In order to determine the efficiency of our molecule, we have incorporated two known COX-2 NSAIDs-Piroxicam and Ibuprofen for comparison purposes. A549 cells (50×10^4 cells/well) in serum free medium were pretreated with different concentrations (10 μM, 5 μM, 2.5 μM, and 1.25 μM) of the NSAIDs and RSCL-0409 for 30 min. Then the cells were incubated with AA ([…]) for another 30 min. Prostaglandin E2 (PGE2), a metabolite of AA through the Cox pathway, was assayed in an enzyme immunoassay (EIA) kit from R&D systems.

[4] = test system: RAW264.7 cells; experiment: LPS induced nitric oxide (NO) release in RAW 264.7 cells (Griess reaction); format: cell-based; settings: RAW264.7, LPS 250 ng/ml
Description: RAW264.7 cells provide an excellent model for evaluations of potential inhibitors on the pathway leading the induction of iNOS and NO production. Nitric oxide production was determined in RAW264.7 cells from the National Center of Cell Science (NCCS, Pune) cultured in color-free DMEM with standard supplements by measuring the amount of nitrite from cell culture supernatant. RAW264.7 cells (5×10^4 per well) were stimulated for 24 hr with or without LPS (250 ng/ml) in the absence of presence of the RSCL-0409. Nitrite was then measured using the Griess reaction. 100 μl of cell culture supernatant was reacted with 100 μl of Griess reagent followed by spectrophotometric measurement at 550 nm. Nitrite concentrations in the supernatants were determined by comparison with a sodium nitrite standard curve. Alongside RSCL-0409 we also used known strong antioxidants (Vit C, Ascorbic acid, Catechin and Trolox) which inhibit NO to comparative antioxidant efficiency.

For `COc1ccc(OC2OC3COC(c4ccccc4)OC3C(OC3OC(COC(=O)CCC(C)=O)C(OC(=O)CCl)C(OC(C)=O)C3OC(C)=O)C2NC(=O)C(Cl)(Cl)Cl)cc1` [RSCL-0409, p-Methoxy phenyl-O-(2,3-di-O-acetyl-4-O-chloroacetyl-6-O-levulinoyl-β-D-glucopyranosyl)-(1-3)-2-deoxy-2-trichloroacetamido-4,6-O-benzylidene-α-D-glucopyranoside], the “% TNF Inhibition” value ([1]; 1 uM) was 0%, the “% TNF Inhibition” value ([1]; 10 uM) was 32% and the “% TNF Inhibition” value ([1]; 50 uM) was 81%. The “% TNF Inhibition” value ([1]; 100 uM) was 91%, the “IL-6 mRNA expression” value [2] was “The same was observed with IL-6 also in a concentration dependent manner” and the PGE2 release ([3]; A549 cells, 10, 5, 2.5 and 1.25 μM, AA induced) was “concentration dependent inhibition of PGE2 release”. The “concentration still effective on PGE2 release” value ([3]; A549 cells, AA induced) was 1.25 µM, the “inhibition of PGE2 in comparison with the NSAIDs” value ([3]; at all the concentrations used) was “better than Piroxicam” and the “anti-oxidant activity versus reference antioxidants (Vit C, Ascorbic acid, Catechin and Trolox)” value [4] was “far more potent”. For the same compound, the “NO secretion induced by LPS” value ([4]; 24 hr) was “inhibited by RSCL-0409 in a concentration dependent manner”.
